Experiment: Solubility and room temperature stability of M4N in modified cyclodextrin / PEG formulations (visual inspection)
Type: physicochemical
Protocol: A 100 mL solution of 40% HP-β-CD for use as a solubilizing agent and/or excipient was made as follows: 65 mL of WFI were placed in a glass beaker containing a stir bar. The beaker was placed on a magnetic plate, and the stir bar was set to stir at medium speed. About forty (40) grams of HP-β-CD were added slowly to the stirring WFI, using a spatula to direct the HP-β-CD to the center of the beaker so as to prevent HP-β-CD crystals from sticking to the beaker wall. The HP-β-CD solution was stirred for about 24 hr or until the HP-β-CD was dissolved completely upon visual inspection. The resulting solution measured about 93 mL. About 7 mL of WFI was added to this resulting solution to obtain 100 mL, producing a final solution of about 40% HP-β-CD. The final solution was stirred for about 1 hr, stored at room temperature, and was protected from light. This method of making the modified cyclodextrin solution may be scaled up or down to obtain the desired volume or concentration. Other concentrations or other modified cyclodextrin solutions may be similarly made, for example, by substituting HP-β-CD with other modified cyclodextrins, adjusted for the appropriate concentrations in the process described above.
A 10 mL solution of M4N at a concentration of about 10 mg/mL in 40% HP-β-CD was made as follows. About 10 mL of the 40% HP-β-CD solution were added to a glass beaker containing a stir bar. The beaker was placed on a magnetic plate and the stir bar was set to stir at medium speed. About […] of M4N were slowly added to the 40% HP-β-CD in the center of the beaker with the aid of a spatula. The M4N/40% HP-β-CD mixture was stirred for 2 hr or until all M4N was uniformly suspended without any clumps being present. The M4N/40% HP-β-CD mixture was optionally heated at 80° C. for about 30 min. (or longer if a larger volume of solution was desired, for example, 1 hr at 80° C. for 100 mL of the M4N/HP-β-CD mixture), or longer as needed to ensure complete dissolution of M4N. […] The final M4N/40% HP-β-CD solution was stored at room temperature and was kept protected from light. This process may be scaled up or down to obtain the requisite volume or concentration of M4N. Formulations containing M4N in other cyclodextrin solutions may be similarly made, such as, for example, by substituting HP-β-CD in the process described above with other cyclodextrins.
A 100 mL solution of M4N at a concentration of about 25 mg/mL in PEG 300 was made as follows. About 100 mL of PEG 300 were added to a glass beaker containing a stir bar. The beaker was placed on a magnetic plate and the stir bar was set to stir at medium speed. About 2.5 g of M4N were slowly added to the PEG 300 in the center of the beaker with the aid of a spatula to prevent M4N from sticking to the beaker wall. The M4N/PEG 300 mixture was stirred for 24 hr or until all M4N had dissolved or was uniformly suspended without any clumps being present. The M4N/PEG 300 mixture was optionally heated at about 60° C. for about 30 min. (or longer if a larger volume of solution was desired, for example, 1 hr at 60° C. for 500 mL of the M4N/PEG 300 mixture), or longer as needed to ensure complete dissolution of M4N. […] If crystals formed, the M4N/PEG 300 solution could be heated again at 60° C. for about 1 hr, with stirring, on a hot magnetic plate until all M4N was dissolved back in solution. The final M4N/PEG 300 solution was stored at room temperature and was kept protected from light. This process may be scaled up or down to obtain the requisite volume or concentration of M4N. Formulations containing M4N in other PEGs may be similarly made, such as, for example, by substituting PEG 300 in the process described above with PEG 400 or PEG 400 monolaurate. […]

Which results are given for `COc1ccc(C[C@@H](C)[C@@H](C)Cc2ccc(OC)c(OC)c2)cc1OC` [Formulation M4N, meso-1,4-bis(3,4-dimethoxyphenyl)-2,3-dimethylbutane]?
Dissolution After Heating at X ° C. (1.50% β-CD, M4N 1 mg/mL, 90°): N at 90°; Dissolution After Heating at X ° C. (1.50% β-CD, M4N 10 mg/mL, 90°): N at 90°; Stability at Room Temperature (5% HP-β-CD, 12.5% PEG 300 (v/v), M4N 3.13 mg/mL): <7 days; Dissolution After Heating at X ° C. (5% HP-β-CD, 12.5% PEG 300 (v/v), M4N 3.13 mg/mL, 60°): Y at 60°; Dissolution After Heating at X ° C. (5% γ-CD, M4N 1 mg/mL, 90°): N at 90°; Stability at Room Temperature (6.7% HP-β-CD, 16.7% PEG 300 (v/v), M4N 4.17 mg/mL): >7 days; Dissolution After Heating at X ° C. (6.7% HP-β-CD, 16.7% PEG 300 (v/v), M4N 4.17 mg/mL, 60°): Y at 60°; Stability at Room Temperature (10% HP-β-CD, 25% PEG 300 (v/v), M4N 6.25 mg/mL): >7 days; Dissolution After Heating at X ° C. (10% HP-β-CD, 25% PEG 300 (v/v), M4N 6.25 mg/mL, 60°): Y at 60°; Dissolution After Heating at X ° C. (10% HP-β-CD, 77% PEG 300 (v/v), M4N 19.3 mg/mL, 60°): Y at 60°; Stability at Room Temperature (12.5% HP-β-CD, 50% PEG 300 (v/v), M4N 12.5 mg/mL): <1 days; Dissolution After Heating at X ° C. (12.5% HP-β-CD, 50% PEG 300 (v/v), M4N 12.5 mg/mL, 60°): Y at 60°; Dissolution After Heating at X ° C. (13% HP-β-CD, 67% PEG 300 (v/v), M4N 16.7 mg/mL, 60°): Y at 60°; Stability at Room Temperature (15% HP-β-CD, 50% PEG 300 (v/v), M4N 12.5 mg/mL): <7 days; Dissolution After Heating at X ° C. (15% HP-β-CD, 50% PEG 300 (v/v), M4N 12.5 mg/mL, 60°): Y at 60°; Dissolution After Heating at X ° C. (15% α-CD, M4N 10 mg/mL, 90°): N at 90°; Dissolution After Heating at X ° C. (15% α-CD, M4N 50 mg/mL, 90°): N at 90°; Dissolution After Heating at X ° C. (15% α-CD, M4N 100 mg/mL, 90°): N at 90°; Stability at Room Temperature (20% HP-β-CD, 50% PEG 300 (v/v), M4N 12.5 mg/mL): >7 days; Dissolution After Heating at X ° C. (20% HP-β-CD, 50% PEG 300 (v/v), M4N 12.5 mg/mL, 60°): Y at 60°; Stability at Room Temperature (20% HP-β-CD, M4N 1 mg/mL): >7 days; Dissolution After Heating at X ° C. (20% HP-β-CD, M4N 1 mg/mL, 90°): Y at 90°; Dissolution After Heating at X ° C. (20% HP-β-CD, M4N 10 mg/mL, 90°): N at 90°; Stability at Room Temperature (23% HP-β-CD, 43 PEG 300 (v/v), M4N 12.9 mg/mL): >7 days; Dissolution After Heating at X ° C. (23% HP-β-CD, 43 PEG 300 (v/v), M4N 12.9 mg/mL, 60°): Y at 60°; Stability at Room Temperature (27% HP-β-CD, 33% PEG 300 (v/v), M4N 13.3 mg/mL): >7 days; Dissolution After Heating at X ° C. (27% HP-β-CD, 33% PEG 300 (v/v), M4N 13.3 mg/mL, 60°): Y at 60°; Stability at Room Temperature (27% HP-β-CD, 33% PEG 400 (v/v), M4N 13.3 mg/mL): >7 days; Stability at Room Temperature (30% HP-β-CD, 25% PEG 400 (v/v), M4N 12.5 mg/mL): >7 days; Dissolution After Heating at X ° C. (30% HP-β-CD, 25% PEG 400 (v/v), M4N 12.5 mg/mL, 60°): Y at 60°; Stability at Room Temperature (30% HP-β-CD, M4N 1 mg/mL): >7 days; Dissolution After Heating at X ° C. (30% HP-β-CD, M4N 1 mg/mL, 90°): Y at 90°; Stability at Room Temperature (30% HP-β-CD, M4N 10 mg/mL): <3 days; Dissolution After Heating at X ° C. (30% HP-β-CD, M4N 10 mg/mL, 90°): Y at 90°; Dissolution After Heating at X ° C. (30% HP-β-CD, M4N 20 mg/mL, 90°): N at 90°; Dissolution After Heating at X ° C. (30% HP-β-CD, M4N 50 mg/mL, 90°): N at 90°; Dissolution After Heating at X ° C. (30% HP-β-CD, M4N 100 mg/mL, 90°): N at 90°; Stability at Room Temperature (32% HP-β-CD, 20% PEG 400 (v/v), M4N 10 mg/mL): >7 days; Dissolution After Heating at X ° C. (32% HP-β-CD, 20% PEG 400 (v/v), M4N 10 mg/mL, 60°): Y at 60°; Dissolution After Heating at X ° C. (40% HP-β-CD, 1% PVP (w/v), M4N 1 mg/mL): N; Dissolution After Heating at X ° C. (40% HP-β-CD, 1% PVP (w/v), M4N 10 mg/mL): N; Dissolution After Heating at X ° C. (40% HP-β-CD, 2.5% PG (v/v), M4N 1 mg/mL, 80°): N at 80°; Dissolution After Heating at X ° C. (40% HP-β-CD, 2.5% PG (v/v), M4N 10 mg/mL, 80°): N at 80°; Stability at Room Temperature (40% HP-β-CD, M4N 1 mg/mL): >7 days; Dissolution After Heating at X ° C. (40% HP-β-CD, M4N 1 mg/mL, 80°): Y at 80°; Stability at Room Temperature (40% HP-β-CD, M4N 10 mg/mL): >7 days; Dissolution After Heating at X ° C. (40% HP-β-CD, M4N 10 mg/mL, 80°): Y at 80°; Dissolution After Heating at X ° C. (40% HP-β-CD, M4N 12 mg/mL, 80°): N at 80°; Dissolution After Heating at X ° C. (40% HP-β-CD, M4N 14 mg/mL, 80°): N at 80°; Dissolution After Heating at X ° C. (40% HP-β-CD, M4N 16 mg/mL, 80°): N at 80°; Dissolution After Heating at X ° C. (40% HP-β-CD, M4N 20 mg/mL, 80°): N at 80°; Dissolution After Heating at X ° C. (40% HP-β-CD, M4N 50 mg/mL, 80°): N at 80°; Dissolution After Heating at X ° C. (40% HP-β-CD, M4N 100 mg/mL, 80°): N at 80°; Stability at Room Temperature (50% HP-β-CD in saline, M4N 10 mg/mL): >7 days; Dissolution After Heating at X ° C. (50% HP-β-CD in saline, M4N 10 mg/mL, 90°): Y at 90°; Stability at Room Temperature (50% HP-β-CD, 1.25% PVP (w/v), M4N 1 mg/mL): <3 days; Dissolution After Heating at X ° C. (50% HP-β-CD, 1.25% PVP (w/v), M4N 1 mg/mL, 90°): Y at 90°; Dissolution After Heating at X ° C. (50% HP-β-CD, 1.25% PVP (w/v), M4N 10 mg/mL): N; Dissolution After Heating at X ° C. (50% HP-β-CD, 1.25% PVP (w/v), M4N 50 mg/mL): N; Stability at Room Temperature (50% HP-β-CD, M4N 1 mg/mL): >7 days; Dissolution After Heating at X ° C. (50% HP-β-CD, M4N 1 mg/mL, 90°): Y at 90°; Stability at Room Temperature (50% HP-β-CD, M4N 10 mg/mL): >7 days; Dissolution After Heating at X ° C. (50% HP-β-CD, M4N 10 mg/mL, 90°): Y at 90°; Dissolution After Heating at X ° C. (50% HP-β-CD, M4N 20 mg/mL, 90°): N at 90°; Dissolution After Heating at X ° C. (50% HP-β-CD, M4N 50 mg/mL, 90°): N at 90°; Dissolution After Heating at X ° C. (50% HP-β-CD, M4N 100 mg/mL, 90°): N at 90°; remained in solution after cooling (M4N 1 mg/mL and 10 mg/mL in 40% HP-β-CD): greater than 7 days

— US20080096967A1, “Formulations for Injection of Catecholic Butanes, Including Ndga Compounds, Into Animals” (priority 2005, published 2008)
